Target: T1, human histamine H3 receptor (Homo sapiens, UniProt Q9Y5N1)
T1 construct: host or cells: cells expressing the human H3 receptor
Assay: H3 GTPγS assay (SPA method), histamine H3 in vitro assay
Assay type: biochemical
Settings: GTPγ[35S] binding to membranes of cells expressing human H3; antagonist mode with R-γ-Me-Histamine at EC80 (30 nM); in one embodiment HCl salts tested; read-out: Potency (functional potency as indicated by IC50)

T1 sequence (Q9Y5N1 whole entry): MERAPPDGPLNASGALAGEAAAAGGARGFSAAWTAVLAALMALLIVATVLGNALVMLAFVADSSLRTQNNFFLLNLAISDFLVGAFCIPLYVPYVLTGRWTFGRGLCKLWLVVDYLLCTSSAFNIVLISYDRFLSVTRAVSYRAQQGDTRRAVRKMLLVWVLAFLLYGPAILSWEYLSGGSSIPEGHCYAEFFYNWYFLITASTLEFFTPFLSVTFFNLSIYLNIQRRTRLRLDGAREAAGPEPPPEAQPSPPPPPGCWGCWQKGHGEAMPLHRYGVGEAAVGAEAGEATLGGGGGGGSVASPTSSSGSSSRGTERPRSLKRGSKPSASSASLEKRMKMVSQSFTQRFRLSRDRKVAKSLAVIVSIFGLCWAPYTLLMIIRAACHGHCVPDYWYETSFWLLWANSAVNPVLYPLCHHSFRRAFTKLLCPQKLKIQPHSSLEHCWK

SMILES | IC50
c1cnc(OCc2ccc3nc4n(c3c2)CCN(C2CCC2)CC4)cn1 [Compound 113, 3-cyclobutyl-9-((pyrazin-2-yloxy)methyl)-2,3,4,5-tetrahydro-1H-[1,4]diazepino[1,7-a]benzimidazole] | ≤ 1000 nM
N#Cc1ccc(C(=O)N2CCc3cc4c(cc3C2)nc2n4CCN(C3CCC3)CC2)cc1 [Compound 185, 4-(9-cyclobutyl-2,3,4,7,8,9,10,11-octahydro-1H-[1,4]diazepino[7′,1′:2,3]imidazo[4,5-g]isoquinoline-2-carbonyl)benzonitrile] | ≤ 10 nM
N#Cc1ccc(NC(=O)c2ccc3c(c2)nc2n3CCN(C3CCC3)CC2)cc1 [Compound 61, 3-cyclobutyl-N-(4-cyanophenyl)-2,3,4,5-tetrahydro-1H-[1,4]diazepino[1,7-a]benzimidazole-9-carboxamide] | ≤ 100 nM
c1ccc2cc(-c3ccc4c(c3)nc3n4CCN(C4CCC4)CC3)ccc2c1 [Compound 214, 3-cyclobutyl-8-(naphthalen-2-yl)-2,3,4,5-tetrahydro-1H-benzo[4,5]imidazo[1,2-d][1,4]diazepine] | ≤ 100 nM
c1cnc(N2Cc3cc4nc5n(c4cc3C2)CCN(C2CCC2)CC5)cn1 [Compound 149, 8-cyclobutyl-2-(pyrazin-2-yl)-1,2,3,6,7,8,9,10-octahydro-[1,4]diazepino[1′,7′:1,2]imidazo[4,5-f]isoindole] | ≥ 1000 nM
COc1ccnc(Nc2ccc3nc4n(c3c2)CCN(C2CCC2)CC4)n1 [Compound 80] | ≤ 1000 nM
O=C(NCc1ccc2c(c1)nc1n2CCN(C2CCC2)CC1)OCc1ccccc1 [Compound 141, benzyl((3-cyclobutyl-2,3,4,5-tetrahydro-1H-benzo[4,5]imidazo[1,2-d][1,4]diazepin-8-yl)methyl)carbamate] | ≤ 100 nM
CNC(=O)c1ccc(Oc2ccc3nc4n(c3c2)CCN(C2CCC2)CC4)nc1 [Compound 76] | ≥ 1000 nM
O=C1c2cc3nc4n(c3cc2C(=O)N1Cc1ccccc1)CCN(C1CCC1)CC4 [Compound 143, 2-benzyl-8-cyclobutyl-7,8,9,10-tetrahydro-[1,4]diazepino[1′,7′:1,2]imidazo[4,5-f]isoindole-1,3(2H,6H)-dione] | ≥ 1000 nM
NCc1ccc(-c2ccc3c(c2)nc2n3CCN(Cc3cnc[nH]3)CC2)cc1 [Compound 17] | ≥ 1000 nM
N#Cc1ccc(CNc2ccc3c(c2)nc2n3CCN(C3CCC3)CC2)cc1 [Compound 63] | ≤ 100 nM
c1ncc(CN2CCc3nc4cc(-c5ccc6[nH]ccc6c5)ccc4n3CC2)[nH]1 [Compound 20] | ≥ 1000 nM
N#Cc1ccc(-c2ccc3c(c2)nc2n3CCN(Cc3cnc[nH]3)CC2)cc1 [Compound 18] | ≥ 1000 nM
CC(C1CCC1)N1CCc2nc3cc(-c4ccc(C#N)cc4)ccc3n2CC1 (centres unmarked) [Compound 6] | ≤ 100 nM
Cc1nc2ccccc2n1-c1ccc2c(c1)nc1n2CCN(C2CCC2)CC1 [Compound 207, 3-cyclobutyl-8-(2-methyl-1H-benzo[d]imidazol-1-yl)-2,3,4,5-tetrahydro-1H-benzo[4,5]imidazo[1,2-d][1,4]diazepine] | ≤ 10 nM
N#Cc1ccc(-c2ccc3c(c2)nc2n3CCN(C3CCC3)CC2)cn1 [Compound 27, 5-(3-cyclobutyl-2,3,4,5-tetrahydro-1H-[1,4]diazepino[1,7-a]benzimidazol-9-yl)-picolinonitrile] | ≤ 10 nM
N#Cc1ccc(CNc2ccc3nc4n(c3c2)CCN(C2CCC2)CC4)cc1 [Compound 81] | ≤ 100 nM
COc1ccnc(Nc2ccc3c(c2)nc2n3CCN(C3CCC3)CC2)n1 [Compound 64] | ≤ 100 nM
N#Cc1ccc(OCc2ccc3c(c2)nc2n3CCN(C3CCC3)CC2)nc1 [Compound 108, 6-((3-cyclobutyl-2,3,4,5-tetrahydro-1H-[1,4]diazepino[1,7-a]benzimidazol-9-yl)methoxy)nicotino-nitrile] | ≤ 100 nM
COc1ccnc(OCc2ccc3c(c2)nc2n3CCN(C3CCC3)CC2)n1 [Compound 107] | ≤ 100 nM
c1nc2ccc(-c3ccc4c(c3)nc3n4CCN(C4CCC4)CC3)cn2n1 [Compound 203, 8-([1,2,4]triazolo[1,5-a]pyridin-6-yl)-3-cyclobutyl-2,3,4,5-tetrahydro-1H-benzo[4,5]imidazo[1,2-d][1,4]diazepine] | ≤ 100 nM
CC(=O)Nc1ccc(-c2ccc3c(c2)nc2n3CCN(Cc3cnc[nH]3)CC2)cc1 [Compound 19] | ≥ 1000 nM

Other lines, results leading:

IC50 | SMILES
≤ 10 nM | c1cc2c(cc1CN1CCCC1)nc1n2CCN(C2CCC2)CC1 [Compound 75]
≤ 10 nM | c1ccc2c(c1)CCN(Cc1ccc3c(c1)nc1n3CCN(C3CCC3)CC1)C2 [Compound 163, 3-cyclobutyl-8-((3,4-dihydroisoquinolin-2(1H)-yl)methyl)-2,3,4,5-tetrahydro-1H-benzo[4,5]imidazo[1,2-d][1,4]diazepine]
≤ 100 nM | O=C(c1cnccn1)N1CCCC(c2ccc3c(c2)nc2n3CCN(C3CCC3)CC2)C1 (centres unmarked) [Compound 173, (3-(3-cyclobutyl-2,3,4,5-tetrahydro-1H-benzo[4,5]imidazo[1,2-d][1,4]diazepin-8-yl)piperidin-1-yl)(pyrazin-2-yl)methanone]
≤ 10 nM | c1cc2c(cc1N1CCC(N3CCOCC3)CC1)nc1n2CCN(C2CCC2)CC1 [Compound 225, 4-(1-(3-cyclobutyl-2,3,4,5-tetrahydro-1H-benzo[4,5]imidazo[1,2-d][1,4]diazepin-8-yl)piperidin-4-yl)morpholine]
≤ 10 nM | FC1CCCN(c2ccc3c(c2)nc2n3CCN(C3CCC3)CC2)C1 (centres unmarked) [Compound 180, 3-cyclobutyl-8-(3-fluoropiperidin-1-yl)-2,3,4,5-tetrahydro-1H-benzo[4,5]imidazo[1,2-d][1,4]diazepine]
≤ 10 nM | c1cc2nc3n(c2cc1CN1CCCC1)CCN(C1CCC1)CC3 [Compound 89]
≤ 10 nM | c1cc2c(cc1N1CCN(C3CCOC3)CC1)nc1n2CCN(C2CCC2)CC1 (racemic) [Compound 101, rac-3-cyclobutyl-9-(4-(tetrahydrofuran-3-yl)piperazin-1-yl)-2,3,4,5-tetrahydro-1H-[1,4]diazepino[1,7-a]benzimidazole]
≤ 1000 nM | CN1CCN(C(=O)c2ccc3c(c2)nc2n3CCN(C3CCC3)CC2)CC1 [Compound 58]
≤ 10 nM | c1cc2c(cc1N1CCN(C3CCCCC3)CC1)nc1n2CCN(C2CCC2)CC1 [Compound 102]
≤ 100 nM | c1c2c(cc3c1nc1n3CCN(C3CCC3)CC1)CCNC2 [Compound 183, 9-cyclobutyl-2,3,4,7,8,9,10,11-octahydro-1H-[1,4]diazepino[7′,1′:2,3]imidazo[4,5-g]isoquinoline]
≤ 10 nM | c1ccc2c(c1)CCN(c1ccc3c(c1)nc1n3CCN(C3CCC3)CC1)C2 [Compound 176, 3-cyclobutyl-8-(3,4-dihydroisoquinolin-2(1H)-yl)-2,3,4,5-tetrahydro-1H-benzo[4,5]imidazo[1,2-d][1,4]diazepine]
≤ 10 nM | c1c2c(cc3c1nc1n3CCN(C3CCC3)CC1)CNC2 [Compound 145, 8-cyclobutyl-1,2,3,6,7,8,9,10-octahydro-[1,4]diazepino[1′,7′:1,2]imidazo[4,5-f]isoindole]
≤ 100 nM | c1cc(-c2ccc3c(c2)nc2n3CCN(C3CCC3)CC2)cnn1 [Compound 127, 3-cyclobutyl-8-(pyridazin-4-yl)-2,3,4,5-tetrahydro-1H-benzo[4,5]imidazo[1,2-d][1,4]diazepine]
≤ 100 nM | c1c2c(cc3c1nc1n3CCN(C3CCC3)CC1)CNCC2 [Compound 189, 9-cyclobutyl-2,3,4,7,8,9,10,11-octahydro-1H-[1,4]diazepino[1′,7′:1,2]imidazo[4,5-g]isoquinoline]
≤ 100 nM | FC1CCN(c2ccc3c(c2)nc2n3CCN(C3CCC3)CC2)C1 (centres unmarked) [Compound 181, 3-cyclobutyl-8-(3-fluoropyrrolidin-1-yl)-2,3,4,5-tetrahydro-1H-benzo[4,5]imidazo[1,2-d][1,4]diazepine]
≤ 1000 nM | N#Cc1ccc2c(c1)nc1n2CCN(C2CCC2)CC1 [Compound 54]
≤ 100 nM | c1cc2c(cc1-c1cncc(N3CCCC3)n1)nc1n2CCN(C2CCC2)CC1 [Compound 94, 3-cyclobutyl-9-(6-(pyrrolidin-1-yl)pyrazin-2-yl)-2,3,4,5-tetrahydro-1H-[1,4]diazepino[1,7-a]benzimidazole]
≤ 10 nM | CN1CCN(c2cnc(-c3ccc4c(c3)nc3n4CCN(C4CCC4)CC3)cn2)CC1 [Compound 92, 3-cyclobutyl-9-(5-(4-methylpiperazin-1-yl)pyrazin-2-yl)-2,3,4,5-tetrahydro-1H-[1,4]diazepino[1,7-a]benzimidazole]
≤ 10 nM | c1cn(-c2ccc3c(c2)nc2n3CCN(C3CCC3)CC2)cn1 [Compound 66]
≤ 1000 nM | O=c1cccnn1-c1ccc2c(c1)nc1n2CCN(C2CCC2)CC1 [Compound 71, 2-(3-cyclobutyl-2,3,4,5-tetrahydro-1H-[1,4]diazepino[1,7-a]benzimidazol-9-yl)pyridazin-3(2H)-one]
≤ 10 nM | CC(=O)N1CCCC(c2ccc3c(c2)nc2n3CCN(C3CCC3)CC2)C1 (centres unmarked) [Compound 171, 1-(3-(3-cyclobutyl-2,3,4,5-tetrahydro-1H-benzo[4,5]imidazo[1,2-d][1,4]diazepin-8-yl)piperidin-1-yl)ethanone]
≤ 100 nM | FC1(F)CCN(c2ccc3c(c2)nc2n3CCN(C3CCC3)CC2)CC1 [Compound 178, 3-cyclobutyl-8-(4,4-difluoropiperidin-1-yl)-2,3,4,5-tetrahydro-1H-benzo[4,5]imidazo[1,2-d][1,4]diazepine]
≤ 100 nM | FC1CCN(Cc2ccc3c(c2)nc2n3CCN(C3CCC3)CC2)C1 (centres unmarked) [Compound 165, 3-cyclobutyl-8-((3-fluoropyrrolidin-1-yl)methyl)-2,3,4,5-tetrahydro-1H-benzo[4,5]imidazo[1,2-d][1,4]diazepine]
≤ 1000 nM | OCc1ccc2c(c1)nc1n2CCN(C2CCC2)CC1 [Compound 106, 2-(3-cyclobutyl-2,3,4,5-tetrahydro-1H-[1,4]diazepino[1,7-a]benzimidazol-9-yl)methanol]
≤ 100 nM | NCc1ccc2c(c1)nc1n2CCN(C2CCC2)CC1 [Compound 140]

From US8404670B2 (Sunovion Pharmaceuticals Inc., priority 2009, dated 2013)
